Entries after “also recorded” stand apart in the source; their conditions may differ.
Assays:
PLD = conditions: tissues or guard cells treated with ABA; cited from earlier work
[1] = tested on: wild-type Arabidopsis leaves; assay: Stomatal closure measured as diffusion resistance (steady state porometer) in detached leaves incubated with ABA; type: in vivo, Arabidopsis thaliana
Method: (§1) The depletion of PLDα in guard cells provides a means of assessing the role of PLD in stomatal movement. Stomatal closure was determined by measuring diffusion resistance using a steady-state porometer. Briefly, detached Arabidopsis leaves were floated with the abaxial side downward in a solution containing 5 mM MES-KOH (pH 6.1), 22 mM KCl, and 1 mM CaCl2 for 1 hour under the same light conditions used for growing plants. Leaves then were incubated without or with ABA at indicated concentrations. ABA was made as a 10 mM stock solution in 5% dimethyl sulfoxide (DMSO), and the same amount of DMSO (0.005%) was also added to the control solution in all treatments. Stomatal aperture of detached leaves was measured as diffusion resistance with a steady state porometer using the method of Thimann and S. O. Satler, Relation Between Leaf Senescence and Stomatal Closure: Senescence in Light, 76 Proc. Natl. Acad. Sci. USA, 2295-2298 (1979). For tobacco plants, leaf diffusion resistance was also measured in leaves attached to approximately 2-month-old plants following foliar spraying of ABA at indicated concentrations. Changes in diffusion resistance in response to ABA in both detached and intact leaves were monitored at indicated time intervals. Before drought treatment was imposed, Arabidopsis plants were grown in a greenhouse for 6-8 weeks and watered regularly. Soil water content in each pot was adjusted to approximately the same level before drought treatment. Plants were subjected to drought by withholding irrigation and the soil surface in each pot was covered with plastic wraps to minimize evaporation. Soil moisture in the 0-20 cm soil layer was monitored during drought using a time domain reflectometer. When ABA (10 μM) was sprayed on plants in some treatments, control groups of plants were sprayed with water in the same amount as for the ABA treatment. Leaves were collected at various times of drought treatment, and leaf water potential (ψw) was measured with a thermocouple psychrometer.
(§2) Detached Arabidopsis leaves were floated with the abaxial side downward in a solution containing 5 mM MES-KOH (pH 6.1), 22 mM KCl, and 1 mM CaCl2 for 1 hour under the same light conditions used for growing plants. Leaves then were incubated without or with ABA at indicated concentrations. ABA was made as a 10 mM stock solution in 5% dimethyl sulfoxide (DMSO), and the same amount of DMSO (0.005%) was also added to the control solution in all treatments. Stomatal aperture was measured as diffusion resistance with a steady state porometer (Li-COR 1600, Lincoln, Nebr.). The porometer was set for aperture of 0.5 cm^2, pressure of 100 pa, and relative humidity of 30%. Changes in diffusion resistance were monitored on plants at indicated time intervals.

[2] = tested on: PLDα-depleted (antisense) Arabidopsis leaves; assay: as above; type: in vivo, Arabidopsis thaliana; conditions: PLDα-suppressed leaves
Method: as §1, §2

[3] = tested on: control tobacco plants (empty vector); assay: Leaf diffusion resistance measured directly on plants after foliar ABA spray; type: in vivo, Nicotiana tabacum; conditions: 2.5 and 5 μM ABA sprayed, 20 minutes after application, relative to plants sprayed with water
Method: as §1, with “Before drought treatment was imposed, Arabidopsis plants were grown in a greenhouse for 6-8 weeks and watered regularly. Soil water content in each pot was adjusted to approximately the same level before drought treatment. Plants were subjected to drought by withholding irrigation and the soil surface in each pot was covered with plastic wraps to minimize evaporation.” left out, “When ABA (10 μM) was sprayed on plants in some treatments, control groups of plants were sprayed with water in the same amount as for the ABA treatment. Leaves were collected at various times of drought treatment, and leaf water potential (ψw) was measured with a thermocouple psychrometer.” left out

[4] = tested on: wild-type Arabidopsis plants; assay: Progressive drought by withholding irrigation, with ABA spray; type: in vivo, Arabidopsis thaliana; conditions: ABA 10 μM sprayed once a day, wild-type plants under drought
Method: as §1, with “Before drought treatment was imposed, Arabidopsis plants were grown in a greenhouse for 6-8 weeks and watered regularly. Soil water content in each pot was adjusted to approximately the same level before drought treatment. Plants were subjected to drought by withholding irrigation and the soil surface in each pot was covered with plastic wraps to minimize evaporation.” left out, “When ABA (10 μM) was sprayed on plants in some treatments, control groups of plants were sprayed with water in the same amount as for the ABA treatment. Leaves were collected at various times of drought treatment, and leaf water potential (ψw) was measured with a thermocouple psychrometer.” left out

[5] = tested on: PLDα-deficient Arabidopsis plants; assay: as above; type: in vivo, Arabidopsis thaliana; conditions: ABA 10 μM sprayed once a day, PLDα-deficient plants under drought
Method: as §1, with “Before drought treatment was imposed, Arabidopsis plants were grown in a greenhouse for 6-8 weeks and watered regularly. Soil water content in each pot was adjusted to approximately the same level before drought treatment. Plants were subjected to drought by withholding irrigation and the soil surface in each pot was covered with plastic wraps to minimize evaporation.” left out, “When ABA (10 μM) was sprayed on plants in some treatments, control groups of plants were sprayed with water in the same amount as for the ABA treatment. Leaves were collected at various times of drought treatment, and leaf water potential (ψw) was measured with a thermocouple psychrometer.” left out

guard cell protoplasts = conditions: PA applied to guard cell protoplasts; cited from earlier work
[6] = tested on: protoplasts of barley aleurone and Vicia faba guard cells; conditions: cited from earlier work

Molecule | PLD activity (and gene expression) after ABA (PLD) | effect on stomatal closure ([1]; 2 μM ABA, wild-type leaves) | increase in diffusion resistance (stomatal closure) ([1]; 10 μM ABA, detached wild-type leaves) | persistence of the ABA effect on diffusion resistance ([1]; 10 μM ABA, wild-type) | effect on stomatal closure ([2]; 2 μM ABA) | ABA-induced increase in diffusion resistance, relative to that observed in wild-type leaves ([2]; 10 μM ABA) | ABA concentration at which diffusion resistance reached a plateau ([2]; 0.5-50 μM ABA tested, 20 minutes) [µM] | increase in leaf diffusion resistance [3] | effect on drought resistance (leaf turgidity, leaf water potential, soil water content) [4] | effect on water loss and drought resistance [5] | ionic efflux (guard cell protoplasts) | effect of PA addition compared with ABA [6]
CC1=CC(=O)CC(C)(C)[C@@]1(O)/C=C/C(C)=C\C(=O)O [ABA, abscisic acid] | increased; also recorded: increases PLD activity | stimulated stomatal closure | approximately twofold | more than 30 minutes | no effect | approximately 50% | > 50 | about 30% | enhanced resistance to drought; also recorded: improves this drought resistance | no detectable effect |  | 
phosphatidic acid [PA] |  |  |  |  |  |  |  |  |  |  | increase in ionic efflux | partially mimicked the effect of ABA

Source: patent US6756526B2, “Drought tolerant plants and methods of increasing drought tolerance in plants” (Kansas State University Research Foundation, priority 2001, dated 2004)
